According to patent US20140366440A1, “METHOD FOR PRODUCING CLONE SEEDLINGS” (OKAYAMA PREFECTURE, priority 2009, published 2014):

What was measured:
E. uro-grandis B = experiment: Rooting of cuttings, oxidized glutathione solution sprayed to phylloplane; type: in vivo, crossbreed of eucalyptus urophylla and eucalyptus grandis; settings: for Rooting rate (%): 88 test pieces; for Number of rooted shoots: of 88 test pieces
Protocol: Oxidized glutathione was applied to a phylloplane of a cutting. That is, the cutting was prepared in the same way as that in Example 5, except that a mother tree of the cutting was E. uro-grandis (Line name: B). Then a base of the cutting was planted to the supporter similar to Example 5. An oxidized glutathione solution was prepared in the same way as Example 5, and, immediately after the base was planted, the oxidized glutathione solution was sprayed to the phylloplane in the form of a mist by use of a spray etc. A spray amount of the glutathione solution was set to about 1.1 ml per shoot. A breeding condition after planting the shoot was similar to Example 5, and a rooting rate was calculated in the same way as Example 5.
A seedling was bred in the same way as Example 8, except that a solution having an oxidized glutathione concentration of 500 mg/L was used as the oxidized glutathione solution.
A seedling was bred in the same way as Example 8, except that a solution having an oxidized glutathione concentration of 1000 mg/L was used as the oxidized glutathione solution.

[1] = system: E. globulus wild-type (tissue culture); experiment: Rooting of tissue-culture shoots planted to supporter infiltrated with rooting medium containing oxidized glutathione; type: in vivo, Eucalyptus globulus; settings: for Rooting rate (%): 27 test pieces; for Number of rooted shoots: of 27 test pieces
Description: A foliage (shoot) grown to have a length of 2 cm to 5 cm was cut from a multiple shoot induced from a wild-type Eucalyptus globulus (hereinafter, abbreviated simply as an “E. globulus”). Inducing the multiple shoot followed a method described in Japanese Patent Application Publication, Tokukaihei, No. 8-228621 A. Specifically, a tissue (terminal bud and axillary bud) was collected from E. globulus (wild type), and the tissue thus collected was subjected to surface disinfection by immersing the tissue for twenty minutes in an sodium hypochlorite aqueous solution containing an amount of available chlorine of 1%. Then, the tissue which had been subjected to the surface disinfection was washed by sterilized water and was planted to a solid medium (MS medium containing sucrose of […], BA of 0.2 mg/L, and gellan gum of […]), and its bud was opened. Within three and four weeks after the culturing of the foliage was started, the culturing of the foliage was subcultured in a medium having a composition identical with that described above. […] Note that the foliages from the multiple shoot was grown in a medium having the composition identical with that used for forming the multiple shoot under the condition identical with that used for forming the multiple shoot.
(§1) A base of the shoot thus obtained was planted to a foaming phenolic resin porous supporter (Manufactured by Smithers-Oasis Company; Product name: Oasis). […] The base of the shoot was cultured for two months in carbon dioxide gas of 1000 ppm at a temperature of 25° C. under irradiation of red light having photosynthesis photon flux density of 51.3 μmol/m^2/S and having a wavelength component of 650 nm to 670 nm to a wavelength component of 450 nm to 470 nm at a ratio of 8.2:1.8. The culturing was carried out with a culture container, which was a cube container (maximum size of about 10 cm to 11.5 cm in length×10 cm to 11.5 cm in width×10.0 cm in height) having a shape whose bulge was slightly protruded. […] Carbon dioxide gas outside the culture container was allowed to enter the culture container through this carbon dioxide gas permeable membrane covering the opening. Accordingly, carbon dioxide gas concentration inside the culture container was about 1000 ppm due to the permeation of the carbon dioxide gas through the film covering the opening of the culture container. The culture container was irradiated with red light by use of a light irradiation device (Product name: CCFL unit, maker's name: Nippon Medical& Chemical Instruments CO., LTD.). Further, humidity in the culture container is adjusted by sealing the culture container with Parafilm.
(§2) Nine shoots were planted per culture container. A rooting rate was calculated from the number of test pieces of the shoot and the number of shoots (the number of rooted shoots) which had been rooted after the foliage was cultured for two months.

E. globulus (Clone B) = experiment: Rooting of shoots with wounded base in rooting medium containing oxidized glutathione; type: in vivo, Eucalyptus globulus; settings: for Rooting rate (%): 9 test pieces; for Number of rooted shoots: of 9 test pieces
Protocol: as §1, §2
The culture was carried out in the same way as Example 1, except that genetically modified E. globulus (Line name: Clone B) was used and a base of the shoot was wounded by a pair of scissors. Note that the base of the shoot (the aforementioned cross-sectional surface) was cut in two directions orthogonal to each other by use of a pair of scissors, and therefore the base was wounded so as to have a cross-shaped wound seen from a front direction.

Tea plant = experiment: Rooting of tea plant cuttings, granule oxidized glutathione mixed with composite soil; type: in vivo; settings: mix with soil; for Rooting rate (%): 462 test pieces; for Number of rooted shoots: of 462 test pieces
Protocol: Oxidized glutathione was prepared in such a way that 1% granule oxidized glutathione was mixed with a composite soil was used. Specifically, 1% granule oxidized glutathione of 15 g was mixed with a composite soil of peat moss and vermiculite (5.5 L), and was then put into a seedling pot (3 cm in inner diameter×15 cm in height×66 holes). This seedling pot served as a supporter. A four-diluted MS medium (Composition: ammonium nitrate of 412.5 mg/L, potassium nitrate of 475 mg/L, sodium dihydrogenphosphate of 42.52 mg/L, and potassium iodide of 0.21 mg/L. Note that a carbon source was not added to this medium.) to which IBA serving as a plant hormone of 10 mg/L was added was sprayed from the above the seedling pot by use of a watering can so that the supporter was soaked with the four-diluted MS medium.
Tea plant was used as a material for a cutting. Specifically, a cutting grown to have a length of about 5 cm to 20 cm, about one to three joints, about one to six leaves was cut out from a mother tree, and a tip of each leaf was cut off. In this way, the cutting was adjusted and prepared.
A base of the cutting thus adjusted and prepared was planted to a supporter (66 cuttings were planted per seedling pot). After this planting, the shoot was cultured for one and half months in a carbon dioxide gas concentration of 1000 ppm, a temperature of 25° C., and a humidity of 60% having a wavelength component of 650 nm to 670 nm to a wavelength component of 450 nm to 470 nm at a ratio of 8.2:1.8 under irradiation of red light having photosynthesis photon flux density of 51.3 μmol/m^2/S. After that, the seedling pot was moved to a green house, and was bred for two and half months. In the green house, a high humidity (80% or more) was kept by frequently spraying mist. After two and half month from this moving, a rooting rate was calculated from the number of rooted cuttings.
The culture was carried out in the same way as Example 12, except that an amount of 1% granule oxidized glutathione to be added to a composite soil (5.5 L) was set to 75 g.

[2] = Example 9: 500 mg/L, sprayed to phylloplane
[3] = Example 10: 1000 mg/L, sprayed to phylloplane
[4] = Example 2: 50 mg/L in medium, two months
[5] = Example 3: 75 mg/L in medium, two months

Question: What does the source list for oxidized glutathione?
Answer: Rooting rate (%) (E. uro-grandis B; Example 8: 200 mg/L, sprayed to phylloplane (about 1.1 ml per shoot), three weeks): 54.5%; Number of rooted shoots (E. uro-grandis B; Example 8: 200 mg/L, sprayed to phylloplane): 48; Rooting rate (%) (E. uro-grandis B; [2]): 59.1%; Number of rooted shoots (E. uro-grandis B; [2]): 52; Rooting rate (%) (E. uro-grandis B; [3]): 60.2%; Number of rooted shoots (E. uro-grandis B; [3]): 53; Rooting rate (%) ([1]; Example 1: 25 mg/L in medium, adding glutathione to rooting medium (with STS, ascorbic acid, IBA), cultured two months): 74.1%; Number of rooted shoots ([1]; Example 1: 25 mg/L in medium, two months): 20; Rooting rate (%) [1, 4]: 85.2%; Number of rooted shoots [1, 4]: 23; Rooting rate (%) [1, 5]: 51.9%; Number of rooted shoots [1, 5]: 14; Rooting rate (%) (E. globulus (Clone B); Example 14: 25 mg/L in medium): 88.9%; Number of rooted shoots (E. globulus (Clone B); Example 14: 25 mg/L in medium): 8; Rooting rate (%) (E. globulus (Clone B); Example 15: 75 mg/L in medium): 77.8%; Number of rooted shoots (E. globulus (Clone B); Example 15: 75 mg/L in medium): 7; Rooting rate (%) (Tea plant; Example 12: 3 mg/L in composite soil (15 g of 1% granule per 5.5 L)): 96.0%; Number of rooted shoots (Tea plant; Example 12: 3 mg/L in composite soil): 443; Rooting rate (%) (Tea plant; Example 13: 15 mg/L in composite soil (75 g of 1% granule per 5.5 L)): 99.6%; Number of rooted shoots (Tea plant; Example 13: 15 mg/L in composite soil): 461
